{"source": "PubChem BioAssay AID2060909", "about": "(Molecular Pharmacology Branch, DTP, NCI, 2025);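 note: spheroids exposed to the agents for 7 days before readout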;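 for viability, T/C: luminescence viability as percent of DMSO vehicle control wells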", "system": "362531-283-R-J2-PDC complex spheroid viability", "assay": "Anticancer human tumor 362531-283-R-J2-PDC patient-derived colon adenocarcinoma cell line growth inhibition [RAS]", "conditions": "for IC50: curve of first compound; for viability, T/C: stronger effect = lower value", "from_the_text": "RAS pathway inhibitors in Combinations in Complex Spheroids\nA high-throughput screen of multi-cell type tumor spheroids was designed to identify active combinations of RAS pathway inhibitors and targeted small molecules. Complex spheroids include a stromal component modeled by human endothelial cells (HUVEC) and fibroblasts modeled by human mesenchymal stem cells (MSCs). The concentration ranges selected for each drug and investigational agent were based upon clinically achievable concentrations if the clinical Cmax of the agent was known.\nCompounds. The drugs and investigational agents: abemaciclib (NSC768073), cobimetinib (NSC768068), divarasib (GDC6063, NSC841802), docetaxel (NSC628503), GDC-1971 (RLY-1971, NSC841576), gemcitabine (NSC613327), inavolisib (NSC800729), ipatasertib (NSC767898), KB-0742 (NSC834161), MRTX-1133 (NSC836407), osimertinib (NSC779217), RMC-4630 (NSC839698), RMC-6236 (NSC851965), RMC-6291 (NSC852671), Ro-3306 (NSC812927), sapanisertib (NSC764658), SN-38 (NSC673596), staurosporine (NSC755774), SY5609 (NSC837396), and tovorafenib (DAY101, NSC766906), were obtained from the National Cancer Institute (NCI) Developmental Therapeutics Program Chemical Repository. The FDA-approved anticancer drug set is available from the NCI Developmental Therapeutics Program. […] The stock solutions were prepared in dimethyl sulfoxide (DMSO, Sigma-Aldrich, St. Louis, MO, cat. D2650) at 800-fold the tested concentration and stored at -70 degrees C prior to their use. All drugs and investigational agents were tested over a range starting from a high concentration at or near the clinical Cmax and decreasing in half-log increments. If the clinical Cmax for an agent had not been determined, the highest concentration tested was 10 microM.\nCell Culture. All cells were maintained in an incubator at 37 degrees C and 5% CO2 with 95% humidity. The PDC lines were cultured according to standard operating procedures established by the NCI PDMR. All PDCs were thawed and cultured in Matrigel-coated flasks prepared with a working solution of 1X Ham's F-12 nutrient mix, without supplementation (Invitrogen, Waltham, MA, cat. 11765054), 100 U/mL penicillin-streptomycin (Invitrogen, cat. 15140122), and 2.5% Matrigel (Corning Inc., Corning, NY, cat. 354248) for the first three passages. The 362531-283-R-J2-PDC and 782815-120-R-J1-PDC lines were cultured in 6C/Colon 1B media, which includes advanced DMEM/F-12 (Thermo Fisher Scientific, cat. 12634028), 10 mM HEPES (Thermo Fisher Scientific, cat. 15630080), 1X GlutaMAX supplement (Thermo Fisher Scientific, cat. 35050061), 0.1 mg/mL primocin (InvivoGen, San Diego, CA, cat. ant-pm-2), 10% defined fetal bovine serum, heat inactivated (HyClone Laboratories Inc., Logan, UT, cat. SH30070.03HI), 50% L-WRN conditioned media (ATCC, cat. CRL-3276), 1.25 mM N-Acetyl-L-cysteine (Sigma-Aldrich, cat. A9165), 10 mM nicotinamide (Sigma-Aldrich, cat. N0636), 1X B-27 supplement (Thermo Fisher Scientific, cat. 17504044), 1X N-2 supplement (Thermo Fisher Scientific, cat. 17502048), 50 ng/mL human EGF (Thermo Fisher Scientific, cat. PHG0311), and 10 microM Y-27632 dihydrochloride (Tocris Bioscience, cat. 1254). The K12877-001-R-J1-PDC line was cultured in 6I media, which includes all 6C/Colon 1B media plus 10 ng/mL human FGF-10 (PeproTech, cat. 100-26), 1 ng/mL human FGF-2 (PeproTech, cat. 100-18B), 1 µM prostaglandin E2 (Tocris Bioscience, cat. 2296), […] hydrocortisone (Sigma-Aldrich, cat. H4001), and […] bovine insulin (Sigma-Aldrich, cat. I6634). The K86415-001-R-J1-PDC line was cultured in 6D media, which includes all 6C/Colon 1B media components minus the L-WRN conditioned media. The 485176-168-R4-J1-PDC was cultured in PANC media, which includes all 6C/Colon 1B media plus 100 ng/mL human FGF-10 (PeproTech, cat. 100-26), 500 nM SB-431542 (Selleckchem, cat. S1067), and 10 nM gastrin (Tocris Bioscience, cat. 3006). […]"}
{"smiles": "C=CC(=O)N1CCN(c2nc(OCC3CCCN3C)nc3c(F)c(-c4nc(N)cc(C)c4C(F)(F)F)c(Cl)cc23)C(C)C1", "note": "(configuration not stated) + CCn1c(-c2cccnc2C(C)OC)c2c3cc(ccc31)N1CCOC(CC(NC(=O)C(C(C)C)N(C)C(=O)C3(F)CCN(C(=O)C#CC(C)(C)N(C)C)CC3)C(=O)N3CCCC(N3)C(=O)OCC(C)(C)C2)C1", "values": [{"measurement": "IC50", "setting": "second compound 0.000949 µM", "value": "> 1000", "unit": "nM"}, {"measurement": "IC50", "setting": "second compound 0.003 µM", "value": "> 1000", "unit": "nM"}, {"measurement": "IC50", "setting": "second compound 0.00949 µM", "value": "> 1000", "unit": "nM"}, {"measurement": "IC50", "setting": "second compound 0.03 µM", "value": "> 1000", "unit": "nM"}, {"measurement": "IC50", "setting": "second compound 0.0949 µM", "value": "> 1000", "unit": "nM"}, {"measurement": "IC50", "setting": "second compound 0.3 µM", "value": "> 1000", "unit": "nM"}, {"measurement": "viability, T/C", "setting": "second compound 0.000949 µM, first compound 0.00316 µM", "value": 98.9, "unit": "%"}, {"measurement": "viability, T/C", "setting": "second compound 0.000949 µM, first compound 0.01 µM", "value": 106, "unit": "%"}, {"measurement": "viability, T/C", "setting": "second compound 0.000949 µM, first compound 0.0316 µM", "value": 106, "unit": "%"}, {"measurement": "viability, T/C", "setting": "second compound 0.000949 µM, first compound 0.1 µM", "value": 97, "unit": "%"}, {"measurement": "viability, T/C", "setting": "second compound 0.000949 µM, first compound 0.316 µM", "value": 107, "unit": "%"}, {"measurement": "viability, T/C", "setting": "second compound 0.000949 µM, first compound 1 µM", "value": 95.2, "unit": "%"}, {"measurement": "viability, T/C", "setting": "second compound 0.003 µM, first compound 0.00316 µM", "value": 111, "unit": "%"}, {"measurement": "viability, T/C", "setting": "second compound 0.003 µM, first compound 0.01 µM", "value": 104, "unit": "%"}, {"measurement": "viability, T/C", "setting": "second compound 0.003 µM, first compound 0.0316 µM", "value": 98.5, "unit": "%"}, {"measurement": "viability, T/C", "setting": "second compound 0.003 µM, first compound 0.1 µM", "value": 92.4, "unit": "%"}, {"measurement": "viability, T/C", "setting": "second compound 0.003 µM, first compound 0.316 µM", "value": 96.1, "unit": "%"}, {"measurement": "viability, T/C", "setting": "second compound 0.003 µM, first compound 1 µM", "value": 91.8, "unit": "%"}, {"measurement": "viability, T/C", "setting": "second compound 0.00949 µM, first compound 0.00316 µM", "value": 101, "unit": "%"}, {"measurement": "viability, T/C", "setting": "second compound 0.00949 µM, first compound 0.01 µM", "value": 122, "unit": "%"}, {"measurement": "viability, T/C", "setting": "second compound 0.00949 µM, first compound 0.0316 µM", "value": 97.2, "unit": "%"}, {"measurement": "viability, T/C", "setting": "second compound 0.00949 µM, first compound 0.1 µM", "value": 100, "unit": "%"}, {"measurement": "viability, T/C", "setting": "second compound 0.00949 µM, first compound 0.316 µM", "value": 101, "unit": "%"}, {"measurement": "viability, T/C", "setting": "second compound 0.00949 µM, first compound 1 µM", "value": 98.8, "unit": "%"}, {"measurement": "viability, T/C", "setting": "second compound 0.03 µM, first compound 0.00316 µM", "value": 100, "unit": "%"}, {"measurement": "viability, T/C", "setting": "second compound 0.03 µM, first compound 0.01 µM", "value": 117, "unit": "%"}, {"measurement": "viability, T/C", "setting": "second compound 0.03 µM, first compound 0.0316 µM", "value": 87, "unit": "%"}, {"measurement": "viability, T/C", "setting": "second compound 0.03 µM, first compound 0.1 µM", "value": 96.2, "unit": "%"}, {"measurement": "viability, T/C", "setting": "second compound 0.03 µM, first compound 0.316 µM", "value": 101, "unit": "%"}, {"measurement": "viability, T/C", "setting": "second compound 0.03 µM, first compound 1 µM", "value": 106, "unit": "%"}, {"measurement": "viability, T/C", "setting": "second compound 0.0949 µM, first compound 0.00316 µM", "value": 93.6, "unit": "%"}, {"measurement": "viability, T/C", "setting": "second compound 0.0949 µM, first compound 0.01 µM", "value": 95.7, "unit": "%"}, {"measurement": "viability, T/C", "setting": "second compound 0.0949 µM, first compound 0.0316 µM", "value": 103, "unit": "%"}, {"measurement": "viability, T/C", "setting": "second compound 0.0949 µM, first compound 0.1 µM", "value": 101, "unit": "%"}, {"measurement": "viability, T/C", "setting": "second compound 0.0949 µM, first compound 0.316 µM", "value": 95.6, "unit": "%"}, {"measurement": "viability, T/C", "setting": "second compound 0.0949 µM, first compound 1 µM", "value": 113, "unit": "%"}, {"measurement": "viability, T/C", "setting": "second compound 0.3 µM, first compound 0.00316 µM", "value": 100, "unit": "%"}, {"measurement": "viability, T/C", "setting": "second compound 0.3 µM, first compound 0.01 µM", "value": 109, "unit": "%"}, {"measurement": "viability, T/C", "setting": "second compound 0.3 µM, first compound 0.0316 µM", "value": 108, "unit": "%"}, {"measurement": "viability, T/C", "setting": "second compound 0.3 µM, first compound 0.1 µM", "value": 103, "unit": "%"}, {"measurement": "viability, T/C", "setting": "second compound 0.3 µM, first compound 0.316 µM", "value": 94.4, "unit": "%"}, {"measurement": "viability, T/C", "setting": "second compound 0.3 µM, first compound 1 µM", "value": 100, "unit": "%"}]}
